In ChEMBL document CHEMBL3994657, “3,4-Dihydroquinazoline derivatives inhibit the activities of cholinesterase enzymes” (Bioorg Med Chem Lett, 2017) one finds IC50, Ratio IC50 and Ki data, which are given here for 14 compounds.

Bounds are passed on as bounds.

Test [1] deals with T1, Cholinesterase (Equus caballus, UniProt P81908). The experiment in a line: Inhibition of equine serum BCHE using butyrylthiocholine iodide as substrate preincubated for 20 mins followed by substrate addition measured for 5 mins by spectrophotometry based Ellman method. In general terms: In Ellman's method for cholinesterases, released thiocholine reacts with DTNB.
T1 sequence (P81908 whole entry): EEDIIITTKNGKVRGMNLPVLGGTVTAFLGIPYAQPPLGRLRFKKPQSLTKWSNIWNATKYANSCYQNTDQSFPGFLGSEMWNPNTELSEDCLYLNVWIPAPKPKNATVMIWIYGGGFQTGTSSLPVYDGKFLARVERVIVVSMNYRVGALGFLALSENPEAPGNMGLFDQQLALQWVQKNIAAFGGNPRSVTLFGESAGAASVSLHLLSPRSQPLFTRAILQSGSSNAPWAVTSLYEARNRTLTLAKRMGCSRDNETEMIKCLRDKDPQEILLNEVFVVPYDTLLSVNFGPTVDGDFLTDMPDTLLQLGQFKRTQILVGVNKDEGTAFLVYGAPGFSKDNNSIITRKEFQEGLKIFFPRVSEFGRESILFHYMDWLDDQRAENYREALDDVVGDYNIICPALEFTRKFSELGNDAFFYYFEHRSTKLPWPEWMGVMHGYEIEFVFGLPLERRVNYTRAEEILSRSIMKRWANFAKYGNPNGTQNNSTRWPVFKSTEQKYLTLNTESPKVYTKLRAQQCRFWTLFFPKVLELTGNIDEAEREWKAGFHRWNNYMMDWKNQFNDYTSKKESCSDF
The next test concerns the target Acetylcholinesterase (Electrophorus electricus, UniProt O42275). The experiment in a line: Inhibition of electric eel AChE using acetylthiocholine iodide as substrate preincubated for 20 mins followed by substrate addition measured for 5 mins by spectrophotometry based Ellman method.
Test [2] is described as follows: Selectivity ratio of IC50 for electric eel AChE to IC50 for equine serum BCHE.
Test [3] addresses T1, Cholinesterase. In words: Mixed/noncompetitive inhibition of equine serum BCHE using butyrylthiocholine iodide as substrate preincubated for 20 mins followed by substrate addition measured for 5 mins by Lineweaver-Burk plot analysis. The conditions noted are these: read-out: Ki(app).

Acetylcholinesterase, sequence (O42275 whole entry): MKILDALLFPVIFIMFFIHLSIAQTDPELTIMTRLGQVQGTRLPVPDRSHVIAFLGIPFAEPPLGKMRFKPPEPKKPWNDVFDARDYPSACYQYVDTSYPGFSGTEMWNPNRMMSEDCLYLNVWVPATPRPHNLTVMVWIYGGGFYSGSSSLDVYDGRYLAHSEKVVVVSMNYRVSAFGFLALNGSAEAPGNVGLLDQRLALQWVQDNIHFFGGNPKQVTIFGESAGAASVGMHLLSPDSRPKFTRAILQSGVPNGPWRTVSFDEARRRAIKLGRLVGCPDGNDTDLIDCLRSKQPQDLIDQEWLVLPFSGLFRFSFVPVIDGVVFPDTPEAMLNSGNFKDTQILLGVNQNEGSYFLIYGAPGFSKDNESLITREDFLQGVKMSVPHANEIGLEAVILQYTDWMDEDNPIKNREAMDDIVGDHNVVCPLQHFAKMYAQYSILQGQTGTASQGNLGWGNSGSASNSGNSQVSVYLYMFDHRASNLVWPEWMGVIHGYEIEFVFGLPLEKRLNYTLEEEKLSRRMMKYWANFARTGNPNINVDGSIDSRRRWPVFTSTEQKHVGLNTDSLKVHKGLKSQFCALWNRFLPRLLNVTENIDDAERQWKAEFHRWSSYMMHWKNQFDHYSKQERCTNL

Broadly, the IC50 is the concentration that gives 50% inhibition. The low end stands for greater potency, the high end for weaker potency. As to `O=C(CC1c2cccc(F)c2N=C(N2CCN(CCN3CCCC3)CC2)N1c1ccc(C2CCCCC2)cc1)NCc1ccc(F)cc1` (configuration not stated), the results for the IC50 on Cholinesterase [1] and at Acetylcholinesterase were 2040 nM and greater than 10000 nM, respectively.
The like results for `CN(C)CCN1CCN(C2=Nc3ccccc3C(CC(=O)NCc3ccc(F)cc3)N2c2ccc(-c3ccccc3)cc2)CC1` (configuration not stated) were, in that order, 2600 nM and no less than 10000 nM.
The like results for `CN1CCN(C2=Nc3ccccc3C(CC(=O)NCc3ccccc3)N2c2ccccc2)CC1` (configuration not stated) were, in that order, greater than 10000 nM and greater than 10000 nM.
The like results for `CN(C)CCCCCN(C)C1=Nc2ccccc2C(CC(=O)NCc2ccc(F)cc2)N1c1ccc(C2CCCCC2)cc1` (configuration not stated) were, in that order, 400 nM and 4400 nM.
For `O=C(CC1c2ccccc2N=C(N2CCN(CCN3CCCC3)CC2)N1c1ccc(C2CCCCC2)cc1)NCc1ccc(F)cc1` (configuration not stated), the values for the IC50 against Cholinesterase [1] and at Acetylcholinesterase were 2130 nM and 8000 nM, respectively.
Take `COC(=O)CC1c2ccccc2N=C(N(C)CCCCCN)N1c1ccc(-c2ccccc2)cc1` (configuration not stated): the IC50 on Cholinesterase [1] was 140 nM; at Acetylcholinesterase it was no less than 10000 nM.
The like results for `CN(C)CCCCCN(C)C1=Nc2c(F)cc(F)cc2C(CC(=O)NCc2ccccc2)N1c1ccc(-c2ccccc2)cc1` (configuration not stated) were, in that order, 380 nM and 1200 nM.
The like results for `COc1ccc(CNC(=O)CC2c3ccccc3N=C(N3CCN(CCN(C)C)CC3)N2c2ccc(-c3ccccc3)cc2)cc1` (configuration not stated) were, in that order, 6100 nM and greater than 10000 nM.
As for `CN(CCCCCN1CCCC1)C1=Nc2ccccc2C(CC(=O)NCc2ccccc2)N1c1ccc(-c2ccccc2)cc1` (configuration not stated), the Ratio IC50 in test [2] turned out to be 146. The results for the IC50 against Cholinesterase [1] and against Acetylcholinesterase were 45 nM and 6600 nM, respectively. For the same compound, the Ki on Cholinesterase [3] worked out at 29 nM.
Take `O=C(CC1c2ccccc2N=C(N2CCN(CCN3CCCC3)CC2)N1c1ccc(-c2ccccc2)cc1)NCc1ccc(F)cc1` (configuration not stated): the IC50 is 1470 nM at Cholinesterase [1] and greater than 10000 nM at Acetylcholinesterase.
The like results for `CN(CCCCCN)C1=Nc2ccccc2C(CC(=O)NCc2ccccc2)N1c1ccc(-c2ccccc2)cc1` (configuration not stated) were, in that order, 5300 nM and 4100 nM.
Regarding `CN(C)CCCCCN(C)C1=Nc2ccccc2C(CC(=O)NCc2ccccc2)N1c1ccc(-c2ccccc2)cc1` (configuration not stated), in test [2], the Ratio IC50 was 161. Also, the IC50 was 62 nM against Cholinesterase [1] and no less than 10000 nM on Acetylcholinesterase. Besides, the Ki at Cholinesterase [3] is 51 nM.
Consider `CN(C)CCCCCN(C)C1=Nc2ccccc2C(CC(=O)NCc2ccc(F)cc2)N1c1ccc(-c2ccc(F)cc2)cc1` (configuration not stated), for which the IC50 at Cholinesterase [1] was 240 nM; on Acetylcholinesterase it was 6500 nM.
The like results for `COC(=O)CC1c2ccccc2N=C(N2CCN(C)CC2)N1C1CCCCC1` (configuration not stated) were, in that order, greater than 10000 nM and no less than 10000 nM.
